Source: patent US20250311727A1, “SUBSTITUTED 2-AMINOAZINES AND SALTS THEREOF, AND USE THEREOF AS HERBICIDAL ACTIVE SUBSTANCES” (BAYER AKTIENGESELLSCHAFT, priority 2022, published 2025)

Experiments:
Type in all cases: in vivo
Veronica persica = test: Post-emergence herbicidal efficacy at 320 g/ha, VERPE; conditions: rated visually after about 3 weeks vs untreated controls, 100% = plants have died
From the text: (§1) Unwanted plants/weeds: • ABUTH: Abutilon theophrasti • ALOMY: Alopecurus myosuroides • AMARE: Amaranthus retroflexus • DIGSA: Digitaria sanguinalis • ECHCG: Echinochloa crus-galli • KCHSC: Kochia scoparia • LOLRI: Lolium rigidum • MATIN: Matricaria inodora • POAAN: Poa annua • POLCO: Polygonum convolvulus • SETVI: Setaria viridis • STEME: Stellaria media • VERPE: Veronica persica • VIOTR: Viola tricolor A. Post-Emergence Herbicidal Efficacy at 320 g/ha
(§2) Seeds of mono- and dicotyledonous weed plants were placed in plastic pots in sandy loam soil (doubly sown with in each case one species of mono- or dicotyledonous weed plants per pot), covered with soil and cultivated in a greenhouse under controlled growth conditions. 2 to 3 weeks after sowing, the test plants were treated at the one-leaf stage. The compounds of the invention, formulated in the form of wettable powders (WP) or as emulsion concentrates (EC), were applied to the green parts of the plants as aqueous suspension or emulsion with addition of 0.5% additive at a water application rate equivalent to 600 litres per hectare. After the test plants had been kept in the greenhouse under optimum growth conditions for about 3 weeks, the activity of the preparations was rated visually in comparison to untreated controls.
(§3) For example, 100% activity=the plants have died, 0% activity=like control plants.
(§4) Tables A1 to A10 below show the effects of selected compounds of the general formula (I) according to Table 1 on various harmful plants and at an application rate corresponding to 320 g/ha, which were obtained by the trial procedure specified above.

Amaranthus retroflexus [1] = test: Post-emergence herbicidal efficacy at 320 g/ha, AMARE; conditions: rated visually after about 3 weeks vs untreated controls, 100% = plants have died
From the text: as §1, §2, §3, §4

Amaranthus retroflexus [2] = test: Pre-emergence herbicide efficacy at 320 g/ha, AMARE; conditions: scored visually after about 3 weeks vs untreated controls, 100% = plants have died
From the text: as §1
(§5) Seeds of mono- and dicotyledonous weed plants were placed in plastic pots in sandy loam soil (doubly sown with one species each of mono- or dicotyledonous weed plants per pot) and covered with soil. The compounds of the invention, formulated in the form of wettable powders (WP) or as emulsion concentrates (EC), were then applied to the surface of the covering soil as aqueous suspension or emulsion with addition of 0.5% additive at a water application rate of 600 litres per hectare (converted). After the treatment, the pots were placed in a greenhouse and kept under good growth conditions for the test plants. After about 3 weeks, the efficacy of the preparations was scored visually in comparison with untreated controls as percentages.
as §3
(§6) Tables C1 to C12 below show the effects of selected compounds of the general formula (I) according to Table 1 on various harmful plants and at an application rate corresponding to 320 g/ha, which were obtained by the trial procedure specified above.

Stellaria media = test: Post-emergence herbicidal efficacy at 320 g/ha, STEME; conditions: rated visually after about 3 weeks vs untreated controls, 100% = plants have died
From the text: as §1, §2, §3, §4

Kochia scoparia = test: Post-emergence herbicidal efficacy at 320 g/ha, KCHSC; conditions: rated visually after about 3 weeks vs untreated controls, 100% = plants have died
From the text: as §1, §2, §3, §4

Setaria viridis = test: Pre-emergence herbicide efficacy at 320 g/ha, SETVI; conditions: scored visually after about 3 weeks vs untreated controls, 100% = plants have died
From the text: as §1, §5, §3, §6

Row | Compound | Post-emergence efficacy at 320 g/ha against VERPE in % (Veronica persica) | Post-emergence efficacy at 320 g/ha against AMARE in % (Amaranthus retroflexus [1]) | Pre-emergence efficacy at 320 g/ha against AMARE in % (Amaranthus retroflexus [2]) | Post-emergence efficacy at 320 g/ha against STEME in % (Stellaria media) | Post-emergence efficacy at 320 g/ha against KCHSC in % (Kochia scoparia) | Pre-emergence efficacy at 320 g/ha against SETVI in % (Setaria viridis)
1 | Fc1cnc(Nc2ccccc2CCCC(F)(F)F)nc1 [Example 1-3] | 90% | 90% | – | – | – | –
2 | FC(F)(F)CCCSc1ccccc1Nc1ncc(Cl)cn1 [Example 1-4] | – | 90% | – | – | – | –
3 | O=S(=O)(CCCC(F)(F)F)Oc1c(F)cccc1Nc1ncc(Cl)cn1 [Example 1-14] | 90% | 90% | 90% | – | – | –
4 | O=S(=O)(CCCC(F)(F)F)Oc1c(F)cccc1Nc1ncc(F)cn1 [Example 1-15] | 90% | 90% | – | – | – | –
5 | O=S(=O)(CCC(F)(F)F)Oc1c(F)cccc1Nc1ncc(Cl)cn1 [Example 1-16] | 90% | – | 90% | – | – | –
6 | O=S(=O)(CCC(F)(F)F)Oc1c(F)cccc1Nc1ncc(F)cn1 [Example 1-17] | – | 90% | – | – | – | –
7 | Clc1ccc(-c2ccccc2Nc2ncc(Cl)cn2)cc1 [Example 1-25] | 90% | – | – | 100% | – | –
8 | Fc1ccc(-c2ccccc2Nc2ncc(Cl)cn2)cc1F [Example 1-28] | 100% | 100% | – | – | – | –
9 | N#Cc1cccc(Nc2ncc(C(F)(F)F)cn2)c1-n1cc(C(F)(F)F)cn1 [Example 1-41] | 90% | – | – | – | – | –
10 | N#Cc1cccc(Nc2ccc(F)cn2)c1-n1cc(C(F)(F)F)cn1 [Example 1-52] | 90% | 90% | 90% | – | – | –
11 | N#Cc1cccc(Nc2ncc(Cl)cc2F)c1-n1cc(C(F)(F)F)cn1 [Example 1-54] | 100% | 100% | – | – | 90% | –
12 | N#Cc1cc(Cl)cnc1Nc1cccc(C#N)c1-n1cc(C(F)(F)F)cn1 [Example 1-55] | 100% | 100% | 100% | – | 90% | –
13 | Fc1cccc(Nc2ccc(Cl)cn2)c1-c1cc(C(F)F)no1 [Example 1-56] | 90% | 90% | – | – | – | –
14 | Fc1cc(Cl)cnc1Nc1cccc(F)c1-c1cc(C(F)F)no1 [Example 1-57] | – | – | – | – | 90% | –
15 | N#Cc1ccc(Nc2cccc(C#N)c2-n2cc(C(F)(F)F)cn2)nc1 [Example 1-58] | 90% | 90% | – | – | – | –
16 | N#Cc1cccc(Nc2ccc(Cl)cn2)c1-n1cc(C(F)(F)F)cn1 [Example 1-59] | 100% | 90% | 90% | – | 90% | –
17 | FC(F)(F)CCCc1ccccc1Nc1ccc(Cl)cn1 [Example 1-70] | 90% | 100% | – | – | – | –
18 | N#Cc1cccc(Nc2ncc(Cl)cn2)c1-n1cc(Br)cn1 [Example 1-73] | 90% | 100% | – | – | 90% | –
19 | N#Cc1cc(Cl)cnc1Nc1ccccc1CCCCC(F)(F)F [Example 1-76] | 90% | 90% | – | – | – | –
20 | FC(F)(F)c1cnn(-c2ccccc2Nc2ncc(Cl)cn2)c1 [Example 1-78] | 90% | – | 100% | 90% | – | 90%
21 | Cc1cc(C)c(-c2cc(C(F)F)no2)c(Nc2ccc(Cl)cn2)n1 [Example 2-7] | 90% | – | – | – | – | –
